In brackets after ≈: the same amount, converted by molar mass. Read-outs that look alike come from different tables or passages of the source.
Key:
[1] = Lyophilisation solubility assay (LYSA); format: physicochemical; conditions: aqueous buffer, thermodynamic from solid; 0.05 M phosphate buffer, pH 6.5; * = detection limit
Method: The solubility of compounds of present invention was assessed by LYSA assay. Samples were prepared in duplicate from 10 mM DMSO stock solutions (20 μL) diluted in 30 μL pure DMSO. After evaporation of DMSO with a centrifugal vacuum evaporator, the residue was dissolved in 0.05 M phosphate buffer (150 μL, pH 6.5), stirred for one hour and shook for two hours. After one night, the solution was filtered using a microtiter filter plate. Then the filtrate and its 1/10 dilution were analyzed by HPLC-UV. In addition, a four-point calibration curve was prepared from the 10 mM stock solutions and used for the solubility determination of the compounds.

[2] = tested on: E. coli (ATCC 25922); assay: Minimal Inhibitory Concentration (MIC) assay; format: cell-based; conditions: Escherichia coli, read-out: MIC (μg/mL) E. coli ATCC 25922
Method: The in vitro potency of compounds to inhibit E. coli (ATCC 25922) growth was assessed by MIC (Minimal Inhibitory Concentration) assay. Samples were prepared from 10 mM DMSO stock solutions. After serial 2-fold dilution in DMSO in a master plate (Greiner, Cat No: 651201), 180 μL sterile distilled water was added to 20 μL each aliquot of the samples. Then […], diluted compounds were transferred into a new assay plate (Costar, 3599).
The growth medium […] Mueller Hinton Broth (CAMHB) was prepared by adding the 20 mg per liter CaCl2) and 20 mg per liter MgCl2 into the MHB medium (Jianglai Company, sterilized).
Vials of each of the test microorganisms were maintained frozen in the vapor phase of a liquid nitrogen freezer. Took out the bacteria E. coli ATCC 25922 (KWIKSTIK, 0335K) from liquid nitrogen freezer, thawed it in room temperature, and diluted the bacterial in the CAMHB medium to achieve a final inoculum of 5×10^5 CFU/mL. 90 μL CAMHB with bacteria was dispensed to the assay plate and pipetted 5 times.
Then the assay plates were incubated for 20 hours at 35° C. in ambient air. Following incubation, the MIC (μg/mL), the lowest concentration of drug that inhibits visible growth of the microorganism was read and recorded throw the microscope.

[3] = tested on: K. pneumoniae (ATCC10031); assay: 50% growth inhibitory concentration (IC50) determination assay, K. pneumoniae; format: cell-based; conditions: Klebsiella pneumoniae, growth inhibition, Iso-Sensitest broth, OD 600 nm over 16 h, * = detection limit
Method: (§1) The in vitro antimicrobial activity of the compounds against E. coli (BW25113, obtained from Coli Genetic Stock Center, #7636) and K. pneumoniae (ATCC10031) was determined according to the following procedure:
(§2) The assay used a 10-points Iso-Sensitest broth medium to measure quantitatively the in vitro activity of the compounds against E. coli BW25113 and K. pneumoniae ATCC 10031.
(§3) Stock compounds in DMSO were serially two-fold diluted (range from 50 to 0.097 μM final concentration) in 384 wells microtiter plates and inoculated with 49 μL the bacterial suspension in Iso-Sensitest broth medium to have a final cell concentration of ˜5×10^5 CFU/mL in a final volume/well of 50 μL/well. Microtiter plates were incubated at 35±2° C.
(§4) Bacterial cell growth was determined with the measurement of optical density at k=600 nm each 20 minutes over a time course of 16 h.
(§5) Growth inhibition was calculated during the logarithmic growth of the bacterial cells with determination of the concentration inhibiting 50% (IC50) of the growth.

[4] = tested on: E. coli (BW25113); assay: 50% growth inhibitory concentration (IC50) determination assay, E. coli; format: cell-based; conditions: Escherichia coli, growth inhibition, Iso-Sensitest broth, OD 600 nm over 16 h, 35±2° C., read-out: IC50 (μM) E. coli K12 BW25113
Method: as §1, §2, §3, §4, §5

[5] = ATCC25922, CAMHB, 20 hours at 35° C.

With `CNc1cc(F)c(F)c2c1[nH]c1ncc(-c3ccc4ncc(C(=O)O)c(=O)n4c3)c(N3CC(CN(C)C)C(F)(F)C3)c12` (stereo not shown) [Example 1.22, 7-[4-[4-[(dimethylamino)methyl]-3,3-difluoro-pyrrolidin-1-yl]-5,6-difluoro-8-(methylamino)-9H-pyrido[2,3-b]indol-3-yl]-4-oxo-pyrido[1,2-a]pyrimidine-3-carboxylic acid] as the molecule, how does the solubility thermodynamic [1] read?
The solubility thermodynamic was 65 µg/mL (≈ 111 µM).

Which MIC [2, 5] does the source give for `CNc1cc(F)c(F)c2c1[nH]c1ncc(-c3cc(CN4CCCC4)c4ncc(C(=O)O)c(=O)n4c3)c(N(C)C)c12` [Example 2.03, 7-[4-(Dimethylamino)-5,6-difluoro-8-(methylamino)-9H-pyrido[2,3-b]indol-3-yl]-4-oxo-9-(pyrrolidin-1-ylmethyl)pyrido[1,2-a]pyrimidine-3-carboxylic acid] here?
Its MIC is 0.194 µg/mL (≈ 0.354 µM).

And the solubility thermodynamic [1]?
Its solubility thermodynamic is 51 µg/mL (≈ 93.1 µM).

What about the IC50 [3] of the same molecule?
The IC50 was ≤ 0.098 µM.

What about the IC50 [4] of the same molecule?
The IC50 was 0.748 µM.

With `CNc1c(F)c(F)cc2c1[nH]c1ncc(-c3ccc4ncc(C(=O)O)c(=O)n4c3)c(N3CC[C@@H](N(C)C)C3)c12` [Example 1.27, (R)-7-(4-(3-(Dimethylamino)pyrrolidin-1-yl)-6,7-difluoro-8-(methylamino)-9H-pyrido[2,3-b]indol-3-yl)-4-oxo-4H-pyrido[1,2-a]pyrimidine-3-carboxylic acid] as the molecule, how does the MIC [2, 5] read?
The MIC was 0.759 µg/mL (≈ 1.42 µM).

And the solubility thermodynamic [1]?
Its solubility thermodynamic is 31 µg/mL (≈ 58.1 µM).

With `CNc1c(F)cc(F)c2c1[nH]c1ncc(-c3ccc4ncc(C(=O)O)c(=O)n4c3)c(N(C)C)c12` [Example 1.17, 7-(4-(Dimethylamino)-5,7-difluoro-8-(methylamino)-9H-pyrido[2,3-b]indol-3-yl)-4-oxo-4H-pyrido[1,2-a]pyrimidine-3-carboxylic acid] as the molecule, how does the MIC [2, 5] read?
The MIC was 0.0847 µg/mL (≈ 0.182 µM).

And the solubility thermodynamic [1]?
The solubility thermodynamic was 60 µg/mL (≈ 129 µM).

What about the IC50 [3] of the same molecule?
The IC50 was ≤ 0.098 µM.

And the IC50 [4]?
Its IC50 is 0.497 µM.

Which MIC [2, 5] does the source give for `CNc1cc(F)c(F)c2c1[nH]c1ncc(-c3cc(CN4CCOCC4)c4ncc(C(=O)O)c(=O)n4c3)c(N3CCCC3)c12` [Example 2.04, 7-[5,6-Difluoro-8-(methylamino)-4-pyrrolidin-1-yl-9H-pyrido[2,3-b]indol-3-yl]-9-(morpholinomethyl)-4-oxo-pyrido[1,2-a]pyrimidine-3-carboxylic acid] here?
Its MIC is 0.0432 µg/mL (≈ 0.0733 µM).

What about the solubility thermodynamic [1] of the same molecule?
Its solubility thermodynamic is 91 µg/mL (≈ 154 µM).

And the IC50 [3]?
Its IC50 is 0.22 µM.

What about the IC50 [4] of the same molecule?
Its IC50 is 1.21 µM.

With `CNc1cc(F)c(F)c2c1[nH]c1ncc(-c3cc(C)c4ncc(C(=O)O)c(=O)n4c3)c(C3CC3)c12` [Example 3.01, 7-[4-Cyclopropyl-5,6-difluoro-8-(methylamino)-9H-pyrido[2,3-b]indol-3-yl]-9-methyl-4-oxo-pyrido[1,2-a]pyrimidine-3-carboxylic Acid] as the molecule, how does the MIC [2, 5] read?
The MIC was 0.594 µg/mL (≈ 1.25 µM).

What about the IC50 [3] of the same molecule?
Its IC50 is 0.11 µM.

And the IC50 [4]?
The IC50 was 0.808 µM.

Which solubility thermodynamic [1] does the source give for `CNc1cc(F)c(F)c2c1[nH]c1ncc(-c3cc(N4CCOCC4)c4ncc(C(=O)O)c(=O)n4c3)c(N(C)C)c12` [Example 1.32, 7-[4-(Dimethylamino)-5,6-difluoro-8-(methylamino)-9H-pyrido[2,3-b]indol-3-yl]-9-morpholino-4-oxo-pyrido[1,2-a]pyrimidine-3-carboxylic acid] here?
The solubility thermodynamic was 43 µg/mL (≈ 78.2 µM).

Which results are given for `CNc1cc(F)c(Cl)c2c1[nH]c1ncc(-c3ccc4ncc(C(=O)O)c(=O)n4c3)c(N(C)C)c12` [Example 1.23, 7-(5-Chloro-4-(dimethylamino)-6-fluoro-8-(methylamino)-9H-pyrido[2,3-b]indol-3-yl)-4-oxo-4H-pyrido[1,2-a]pyrimidine-3-carboxylic acid]?
MIC [2, 5]: 0.0871 µg/mL (≈ 0.181 µM); IC50 [3]: ≤ 0.098 µM; IC50 [4]: 0.458 µM

Which MIC [2, 5] does the source give for `CNc1cc(F)c(F)c2c1[nH]c1ncc(-c3ccc4ncc(C(=O)O)c(=O)n4c3)c(N3CCC(CN(C)CC(F)F)C3)c12` (stereo not shown) [Example 1.20, 7-(4-(3-(((2,2-Difluoroethyl)(methyl)amino)methyl)pyrrolidin-1-yl)-5,6-difluoro-8-(methylamino)-9H-pyrido [2,3-b]indol-3-yl)-4-oxo-4H-pyrido[1,2-a]pyrimidine-3-carboxylic acid] here?
The MIC was 0.0707 µg/mL (≈ 0.118 µM).

And the solubility thermodynamic [1]?
The solubility thermodynamic was 165 µg/mL (≈ 276 µM).

Which MIC [2, 5] does the source give for `CNc1cc(Cl)cc2c1[nH]c1ncc(-c3ccc4ncc(C(=O)O)c(=O)n4c3)c(N(C)C)c12` [Example 1.16, 7-(6-Chloro-4-(dimethylamino)-8-(methylamino)-9H-pyrido[2,3-b]indol-3-yl)-4-oxo-4H-pyrido[1,2-a]pyrimidine-3-carboxylic acid] here?
The MIC was 0.169 µg/mL (≈ 0.365 µM).

What about the IC50 [3] of the same molecule?
Its IC50 is 0.183 µM.

And the IC50 [4]?
The IC50 was 1.97 µM.

With `CNc1cc(F)c(F)c2c1[nH]c1ncc(-c3cc(C)c4ncc(C(=O)O)c(=O)n4c3)c(N(C)C)c12` [Example 1.02, 7-[4-(Dimethylamino)-5,6-difluoro-8-(methylamino)-9H-pyrido[2,3-b]indol-3-yl]-9-methyl-4-oxo-pyrido[1,2-a]pyrimidine-3-carboxylic acid] as the molecule, how does the MIC [2, 5] read?
The MIC was 0.598 µg/mL (≈ 1.25 µM).

What about the IC50 [3] of the same molecule?
Its IC50 is ≤ 0.098 µM.

What about the IC50 [4] of the same molecule?
The IC50 was 0.262 µM.

For `CNc1cc(F)cc2c1[nH]c1ncc(-c3ccc4ncc(C(=O)O)c(=O)n4c3)c(N3CCC(c4ccccc4)C3)c12` (stereo not shown) [Example 1.25, 7-(6-Fluoro-8-(methylamino)-4-(3-phenylpyrrolidin-1-yl)-9H-pyrido[2,3-b]indol-3-yl)-4-oxo-4H-pyrido[1,2-a]pyrimidine-3-carboxylic acid], which MIC [2, 5] is on record?
The MIC was 0.697 µg/mL (≈ 1.27 µM).

Which solubility thermodynamic [1] does the source give for `CNc1cc(F)c(F)c2c1[nH]c1ncc(-c3ccc4ncc(C(=O)O)c(=O)n4c3)c(N3CCC4CN(C)CC43)c12` (stereo not shown) [Example 1.08, 7-[5,6-Difluoro-4-(5-methyl-2,3,3a,4,6,6a-hexahydropyrrolo[2,3-c]pyrrol-1-yl)-8-(methylamino)-9H-pyrido[2,3-b]indol-3-yl]-4-oxo-pyrido[1,2-a]pyrimidine-3-carboxylic acid] here?
The solubility thermodynamic was 60 µg/mL (≈ 110 µM).

Which MIC ([2]; ATCC25922, 20 h) does the source give for `CNc1cc(F)c(F)c2c1[nH]c1ncc(-c3ccc4ncc(C(=O)O)c(=O)n4c3)c(N3CCN4CCOCC4C3)c12` (stereo not shown) [Example 1.28, 7-(5,6-Difluoro-4-(hexahydropyrazino[2,1-c][1,4]oxazin-8(1H)-yl)-8-(methylamino)-9H-pyrido[2,3-b]indol-3-yl)-4-oxo-4H-pyrido[1,2-a]pyrimidine-3-carboxylic acid compound with formic acid] here?
Its MIC is 0.356 µg/mL (≈ 0.634 µM).

Which results are given for `CNc1cc(F)c(F)c2c1[nH]c1ncc(-c3cc(N4CCOCC4)c4ncc(C(=O)O)c(=O)n4c3)c(N3CCCC3)c12` [Example 1.07, 7-[5,6-Difluoro-8-(methylamino)-4-pyrrolidin-1-yl-9H-pyrido[2,3-b]indol-3-yl]-9-morpholino-4-oxo-pyrido[1,2-a]pyrimidine-3-carboxylic acid]?
MIC [2, 5]: 0.0911 µg/mL (≈ 0.158 µM); IC50 [3]: 0.319 µM; IC50 [4]: 0.885 µM

What does the source list for `CNc1cc(F)c(F)c2c1[nH]c1ncc(-c3cc(CN4CCC5CN(C)CC54)c4ncc(C(=O)O)c(=O)n4c3)c(N(C)C)c12` (stereo not shown) [Example 2.06, 7-[4-(Dimethylamino)-5,6-difluoro-8-(methylamino)-9H-pyrido[2,3-b]indol-3-yl]-9-[(5-methyl-2,3,3a,4,6,6a-hexahydropyrrolo[2,3-c]pyrrol-1-yl)methyl]-4-oxo-pyrido[1,2-a]pyrimidine-3-carboxylic acid]?
MIC [2, 5]: 0.84 µg/mL (≈ 1.39 µM); solubility thermodynamic [1]: > 840 µg/mL

With `CNc1cc(F)c(F)c2c1[nH]c1ncc(-c3cc(C)c4ncc(C(=O)O)c(=O)n4c3)c(N3CCC4CN(C)CC43)c12` (stereo not shown) [Example 1.33, 7-[5,6-Difluoro-4-(5-methyl-2,3,3a,4,6,6a-hexahydropyrrolo[2,3-c]pyrrol-1-yl)-8-(methylamino)-9H-pyrido[2,3-b]indol-3-yl]-9-methyl-4-oxo-pyrido[1,2-a]pyrimidine-3-carboxylic acid] as the molecule, how does the MIC [2, 5] read?
Its MIC is 0.164 µg/mL (≈ 0.293 µM).

What about the solubility thermodynamic [1] of the same molecule?
The solubility thermodynamic was 275 µg/mL (≈ 491 µM).

For `CNc1cc(F)c(F)c2c1[nH]c1ncc(-c3cc(N4CCOCC4)c4ncc(C(=O)O)c(=O)n4c3)c(N(C)C)c12` [Example 1.06, 7-[4-(Dimethylamino)-5,6-difluoro-8-(methylamino)-9H-pyrido[2,3-b]indol-3-yl]-9-morpholino-4-oxo-pyrido[1,2-a]pyrimidine-3-carboxylic acid], which MIC [2, 5] is on record?
The MIC was 0.122 µg/mL (≈ 0.222 µM).

And the IC50 [3]?
The IC50 was 0.187 µM.

And the IC50 [4]?
Its IC50 is 0.828 µM.
